Series [1] can be described thus: HEK cell culture and dose-response experiments. The class given is cell-based, Human. The settings on record: human, HEK293 cells, non-target system, CellTiter-Blue, read-out: HEK Cells LC50. How it is done:
HEK293 cells were seeded into 96-well plates, at 5000 cells per well, in 100 μL total volumes of DMEM/10% FBS/1% PS media and grown overnight at 37° C. in the presence of 5% CO2. Compounds (0.5 μL volumes from appropriate source plates) were then added to cells, and growth was continued for an additional 48 hours. Following growth, 10 μL of CellTiter-Blue Viability reagent (Promega) was added to each well, and plates were incubated for an additional 4 hours at 37° C. in the presence of 5% CO2. Fluorescence measurements (560 nm excitation/590 nm emission) were then performed using a CLARIOstar Plate Reader (BMG Labtech) to quantify reagent reduction and estimate cell viability.
(In general: The colour change of resazurin is a common sign of viable cells or microbes.)

For series [2], the system named is C. elegans. Briefly: C. elegans minimum lethal concentration dose-response. The class given is in vivo, Caenorhabditis elegans. The following applies: Caenorhabditis elegans, C. elegans viability. As for the experimental part: (§1) Forty microliters of an HB101 bacterial suspension in liquid NGM (see above) was added to each well of a 96-well flat-bottom culture plate, after which approximately 25 synchronized L1 worms, in 10 μl of M9 buffer (see ref. 59 for the recipe), were added to each well. The synchronized L1 worms were obtained from an embryo preparation performed the previous day (see ref. 59 for the protocol). For the L1 assays, 0.5 μl of chemical solution (or DMSO alone) was immediately added to the wells using a multichannel pipette, the final DMSO concentration is 1% (v/v). The worms were incubated for 3 days at 20° C. and the number of viable animals was counted. […] Although the counts were performed after 3 days of incubation in the chemical, it was noted that the L1s were dead within 24 hours of the addition of the chemicals. For the L2/L3 assays, the worms were incubated in the absence of chemical for 1 day at 20° C. until they reached the L2/L3 stage, at which point chemical was added as described above. The worms were then allowed to incubate for 2 days at 20° C. and the number of viable animals was counted as described for the L1 assay. For the L4 assays, the worms were incubated for 2 days at 20° C. before the addition of chemicals. The L4-stage worms were then incubated in chemical for an additional day before quantifying the number of viable animals. The adult assays were performed the same way as the L4 assays, however HT115 E. coli carrying the empty dsRNA expressing vector L4440 was used in place of HB101 and the worms were cultured at 25° C. as opposed to 20° C. for the entirety of the experiment. The HT115 suspension was made by concentrating a bacterial culture, with an OD600 of ˜ 0.8, five-fold with liquid NGM containing 1 mM IPTG and 100 μg/ml carbenicillin. The HT115 cells were induced with 1 mM IPTG for one hour before concentrating with NGM.
Compounds Ia to Im, dose-response assays were performed with C. elegans. 8 of the compounds killed C. elegans with minimum lethal concentrations less than or equal to 100 μM (Table 6). Compounds Ia, Ic, and Ij were the most potently lethal nematicides in this assay, having minimum lethal concentrations of 6.25 μM and below. The positive control nematicide tioxazafen killed nematodes at 3.13 μM and above.

For series [3], the system named is C. oncophora. Put plainly: whole plant or invertebrate. The class given is in vivo. The following applies: Cooperia oncophora, 48 h; eggs of ivermectin-resistant strain, 2 days, egg hatch. From the text: Fresh cattle faeces containing eggs of an ivermectin-resistant strain of C. oncophora were kindly supplied by Dr. Doug Colwell and Dawn Gray (Lethbridge Research Station, Agriculture and Agri-Food Canada). Established methods were used to carry out the experimental cattle infections^60, and these methods were approved by the Lethbridge AAFC Animal Care committee and conducted under animal use license ACC1407. Cattle faeces containing C. oncophora eggs were stored anaerobically at room temperature for a maximum of 6 days before use. Eggs were isolated from faeces using a standard saturated salt flotation method^61 immediately before the egg hatch assay. 80 μl of distilled and deionized water was added to each well of a 96-well culture plate, and then 1 μl of chemical at the appropriate concentration in DMSO was added to each well using a multichannel pipette. Approximately 50 eggs were added per well in 20 μl of water for a final volume of 100 μl in each well, the final DMSO concentration was 1% (v/v). The eggs were incubated in the chemicals for 2 days at room temperature, after which hatching was stopped by the addition of 1 μl iodine tincture to each well. […] “Relative viability” values were calculated by dividing the fraction of eggs that hatched at each concentration by the fraction of eggs that hatched in the corresponding DMSO control wells. Two biological replicates were performed for each dose-response experiment, and the relative viability values were averaged across the biological replicates. The average hatch rate for the DMSO control wells was greater than 93% for both biological replicates. LC50 values were calculated in the same manner as for the C. elegans dose-response assays

For series [4], the system named is C. elegans. Briefly: C. elegans viability at a single concentration (Table 3). The class given is in vivo. The following applies: Caenorhabditis elegans; 100 μM. As for the experimental part: as §1
The ability of exemplary compounds of the application to kill C. elegans at 100 μM (except for compound If which was tested at 50 μM) and to affect the mobility of M. chitwoodi at 45 μM was tested as described above for M. incognita infective juveniles. Percent mobility was measured after 2 days of chronic exposure to test compounds (Table 3).

Series [5] concerns C. elegans. Briefly: C. elegans dose-response experiments (wild type; embryo to adult and dauer stages). It counts as in vivo. The following applies: for LC50: Caenorhabditis elegans. As for the experimental part: as §1
For the dose-response experiments with embryos, eggs obtained from an embryo preparation were immediately aliquoted into 96-well plate wells. Approximately 25 embryos in 50 μl of M9 buffer were added to each well, and 0.5 μl volumes of the chemicals were added via multichannel, in the same way as for the L1 dose-response assays described above. The plates were incubated at 20° C. for 1 day, at which point the number of hatched eggs was counted.
For the dauer dose-response assays, the CB1370 strain carrying the temperature sensitive daf-2(e1370) allele was used. When grown at the non-permissive temperature of 25° C. these mutants will enter dauer constitutively. The assay was performed similarly to the […] described above, however the L1 worms were allowed to grow for 2 days at 25° C. until they became dauer larvae. At this point chemical was added and the dauers were incubated for 2 days at 25° C. before quantitation of viability. After 2 days, all of the dauer larvae, including the DMSO controls, were relatively motionless and appeared as rigid rods. To activate the worms, 1 μl of 1 N sodium hydroxide was added to each well and the plates were agitated vigorously before counting. This was done one well at a time.
At least three biological replicates were performed for each dose-response assay. For each biological replicate, two technical replicates were performed and the numbers of viable animals for each technical replicate were combined (i.e. ˜50 worms assayed per concentration). The number of viable worms at each concentration was divided by the corresponding DMSO control value to give the “relative viability” for each concentration. The “relative viability” values were then averaged across the biological replicates. LC50 values were calculated using Graphpad Prism. The concentration values were log-transformed and a four-parameter logistic curve was fitted to the dose-response data by non-linear regression, from which the LC50 values were extracted.

Setting [6] is: 72 h, L1 worms, 3 days at 20° C., read-out: C. elegans LC50.
Where [7] appears, read: wild-type, resistance none, read-out: LC50 in strain N2.

“And” between values parts separate entries of the source, which are not always exact repeats. Equal entries are not always repeated. Where two headings read alike, the source gives them in different places.

By minimal effective concentration is commonly meant the smallest amount tested that counted as effective. A higher minimal effective concentration goes with a need for much substance. The term LC50 denotes the concentration lethal to half of the exposed cells or organisms. A word on the viability: it is a read-out of living cells in per cent, often relative to untreated cells. For the molecule `Cc1csc2nc(-c3ccccc3)cn12` [Compound Ie], in series [1], the CC50 at 48 h was greater than 100 µM. Moreover, the minimal effective concentration in series [2] is > 100 µM and > 21.4 µg/mL. In addition, the LC50 was 0.9 µM in series [3] and greater than 100 µM in series [5] (setting [6]). Also, the viability at 100 µM in series [4] was 100%.

As to `Clc1ccc(-c2cn3ccsc3n2)cc1` [Ia], the CC50 at 48 h in series [1] is greater than 100 µM. In series [2], this molecule displayed a minimal effective concentration of 1.5 µg/mL. The LC50 in series [3] stood at 3.7 µM; in series [5] (setting [6]), 6.9 µM; in series [5] (setting [7]) it was 6.9 µM. This molecule showed a viability at 100 µM in series [4] of 0%. In addition, the “killing of each developmental stage of C. elegans from embryo to adult” value in series [5] (FIG. 1B) is on record as “micromolar potency”. Further, in series [5] (daf-2(e1370) dauers, FIG. 1B), the “killing of the non-reproductive dauer stage of C. elegans” value is listed as “can also kill the non-reproductive dauer stage”.

For `Fc1ccc(-c2cn3ccsc3n2)cc1` [Ib], the CC50 at 48 h in series [1] was greater than 100 µM. Also, the minimal effective concentration in series [2] was 25 µM and 5.5 µg/mL. For the same molecule, the figures for the LC50 in series [3], in series [5] (setting [6]) and in series [5] (setting [7]) were 5.4 µM, 29.7 µM and 29.7 µM, respectively. In series [4], this molecule came in with a viability at 100 µM of 0%.

Source of the values: patent US20220264883A1, “IMIDAZOTHIAZOLE COMPOUNDS AND METHODS FOR TREATING PLANT NEMATODE INFECTIONS” (The Governing Council of the University of Toronto, priority 2019, published 2022).
